Drawing on patent US20240383915A1, “OXAZEPINE COMPOUNDS AND USES THEREOF IN THE TREATMENT OF CANCER” (Genentech, Inc., priority 2021, published 2024), this text covers IC50 for 14 compounds.

Structures are written as SMILES.

One assay addresses KRas(G12V) (Homo sapiens (Human), UniProt P01116, G12V). The assay can be described thus: KRas(G12V) GDP HTRF (BODIPY-GDP exchange TR-FRET). The class given is biochemical.
In another assay the target is KRas (Homo sapiens (Human), UniProt P01116). Put plainly: KRas GDP HTRF (BODIPY-GDP exchange TR-FRET). The class given is biochemical. The gist of the method:
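Inhibition of SOS1-mediated exchange of BODIPY-GDP on KRAS G12D, started with 3 nM recombinant human SOS1 and 300 nM BODIPY-GDP and read after 60 min. TR-FRET excitation 337 nm, ratio 520/490 nm ×10,000. IC50 from 4-parameter Hill fit of normalized data.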

The next assay concerns SW480 cells. The assay can be described thus: SW480 proliferation assay. The conditions noted are these: Homo sapiens, SW480, SW480; read-out: SW480 Prolif IC50 (G12V). The class given is cell-based.
Another assay has as its system PC-9 cells. The assay can be described thus: PC9 proliferation assay. The conditions noted are these: Homo sapiens, PC-9, PC9; read-out: PC9 Prolif IC50 (G12V). The class given is cell-based, human.

Sequence of KRas(G12V) (P01116-2 other isoform, or with tags, fused parts or gaps G12V): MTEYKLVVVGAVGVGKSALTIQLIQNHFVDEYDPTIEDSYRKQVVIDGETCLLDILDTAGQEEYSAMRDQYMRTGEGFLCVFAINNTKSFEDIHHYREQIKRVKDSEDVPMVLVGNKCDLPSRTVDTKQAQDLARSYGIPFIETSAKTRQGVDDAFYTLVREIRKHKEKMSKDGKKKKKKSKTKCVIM
Sequence of KRas (P01116-2 other isoform, or with tags, fused parts or gaps): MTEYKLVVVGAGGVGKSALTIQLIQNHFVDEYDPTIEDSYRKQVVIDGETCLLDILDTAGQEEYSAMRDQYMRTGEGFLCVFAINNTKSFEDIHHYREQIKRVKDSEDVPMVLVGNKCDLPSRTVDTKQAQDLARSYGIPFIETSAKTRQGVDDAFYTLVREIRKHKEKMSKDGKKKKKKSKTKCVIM

For `Cc1cc(N)nc(-c2c(Cl)c3c4c(nc(OC[C@H]5C[C@H](O)C5)nc4c2F)N([C@H](C)c2cccnc2N)CCO3)c1C(F)(F)F` (atropisomer, axis not shown) [Example 145, (1R,3r)-3-((((R)-9-(6-amino-4-methyl-3-(trifluoromethyl)pyridin-2-yl)-4-((R)-1-(2-aminopyridin-3-yl)ethyl)-8-chloro-10-fluoro-5,6-dihydro-4H-[1,4]oxazepino[5,6,7-de]quinazolin-2-yl)oxy)methyl)cyclobutan-1-ol], the IC50 was 0.56 nM against KRas(G12V), 1.2 nM on KRas, 450 nM in the assay with SW480 cells and 20000 nM in the assay with PC-9 cells.

In the case of `Cc1cc(N)nc(-c2c(Cl)c3c4c(nc(OC[C@H]5C[C@@H](O)C5)nc4c2F)N([C@H](C)c2cccnc2N)CCO3)c1C(F)(F)F` (atropisomer, axis not shown) [Example 146, (1S,3s)-3-((((R)-9-(6-amino-4-methyl-3-(trifluoromethyl)pyridin-2-yl)-4-((R)-1-(2-aminopyridin-3-yl)ethyl)-8-chloro-10-fluoro-5,6-dihydro-4H-[1,4]oxazepino[5,6,7-de]quinazolin-2-yl)oxy)methyl)cyclobutan-1-ol], the IC50 against KRas(G12V) is 0.61 nM; against KRas, 1.5 nM; in the assay on SW480 cells it was 510 nM; with PC-9 cells, 19000 nM.

For the compound `Cc1cc(N)nc(-c2c(Cl)c3c4c(nc(OCC56CCCN5CCC6)nc4c2F)N([C@H](C)c2cccnc2N)CCO3)c1C(F)(F)F` (atropisomer, axis not shown) [Example 147, 6-((R)-4-((R)-1-(2-aminopyridin-3-yl)ethyl)-8-chloro-10-fluoro-2-((tetrahydro-1H-pyrrolizin-7a(5H)-yl)methoxy)-5,6-dihydro-4H-[1,4]oxazepino[5,6,7-de]quinazolin-9-yl)-4-methyl-5-(trifluoromethyl)pyridin-2-amine], the concentration for half-maximal inhibition (IC50) was found to be 0.06 nM against KRas(G12V), 0.18 nM at KRas, 44 nM with SW480 cells and 1300 nM with PC-9 cells.

Consider `Cc1cc(N)nc(-c2c(Cl)c3c4c(nc(OCC5CCN(S(C)(=O)=O)CC5)nc4c2F)N([C@H](C)c2cccnc2N)CCO3)c1C(F)(F)F` (atropisomer, axis not shown) [Example 148, 6-((R)-4-((R)-1-(2-aminopyridin-3-yl)ethyl)-8-chloro-10-fluoro-2-((1-(methylsulfonyl)piperidin-4-yl)methoxy)-5,6-dihydro-4H-[1,4]oxazepino[5,6,7-de]quinazolin-9-yl)-4-methyl-5-(trifluoromethyl)pyridin-2-amine], for which the IC50 came out at 1.1 nM at KRas(G12V), 3.6 nM against KRas, 410 nM in the assay with SW480 cells and 9600 nM in the assay on PC-9 cells.

For the compound `Cc1cc(N)nc(-c2c(Cl)c3c4c(nc(OCCF)nc4c2F)N([C@H](C)c2cccnc2N)CCO3)c1C(F)(F)F` (atropisomer, axis not shown) [Example 151, 6-((R)-4-((R)-1-(2-aminopyridin-3-yl)ethyl)-8-chloro-10-fluoro-2-(2-fluoroethoxy)-5,6-dihydro-4H-[1,4]oxazepino[5,6,7-de]quinazolin-9-yl)-4-methyl-5-(trifluoromethyl)pyridin-2-amine], the IC50 worked out at 1.1 nM at KRas(G12V), 5.4 nM on KRas, 700 nM with SW480 cells and 14000 nM with PC-9 cells.

`Cc1cc(N)nc(-c2c(Cl)c3c4c(nc(OCC5CCOCC5)nc4c2F)N([C@H](C)c2cccnc2N)CCO3)c1C(F)(F)F` (atropisomer, axis not shown) [Example 152, 6-((R)-4-((R)-1-(2-aminopyridin-3-yl)ethyl)-8-chloro-10-fluoro-2-((tetrahydro-2H-pyran-4-yl)methoxy)-5,6-dihydro-4H-[1,4]oxazepino[5,6,7-de]quinazolin-9-yl)-4-methyl-5-(trifluoromethyl)pyridin-2-amine]: the IC50 on KRas(G12V) was determined as 0.75 nM; on KRas, 2.3 nM; in the assay on SW480 cells it was 180 nM; with PC-9 cells, 5600 nM.

`Cc1cc(N)nc(-c2c(Cl)c3c4c(nc(OCC5(C#N)CC5)nc4c2F)N([C@H](C)c2cccnc2N)CCO3)c1C(F)(F)F` (atropisomer, axis not shown) [Example 153, 1-((((R)-9-(6-amino-4-methyl-3-(trifluoromethyl)pyridin-2-yl)-4-((R)-1-(2-aminopyridin-3-yl)ethyl)-8-chloro-10-fluoro-5,6-dihydro-4H-[1,4]oxazepino[5,6,7-de]quinazolin-2-yl)oxy)methyl)cyclopropane-1-carbonitrile]: the IC50 at KRas(G12V) worked out at 0.78 nM; at KRas, 3.3 nM; in the assay on SW480 cells it was 190 nM; in the assay on PC-9 cells it was 14000 nM.

Regarding `COc1nc2c3c(c(Cl)c(-c4nc(N)cc(C)c4C(F)(F)F)c(F)c3n1)OCCN2[C@H](C)c1cccnc1N` (atropisomer, axis not shown) [Example 155, 6-((R)-4-((R)-1-(2-aminopyridin-3-yl)ethyl)-8-chloro-10-fluoro-2-methoxy-5,6-dihydro-4H-[1,4]oxazepino[5,6,7-de]quinazolin-9-yl)-4-methyl-5-(trifluoromethyl)pyridin-2-amine], the IC50 was determined as 0.45 nM against KRas(G12V), 2.5 nM against KRas, 220 nM with SW480 cells and 10000 nM with PC-9 cells.

For `Cc1cc(N)nc(-c2c(Cl)c3c4c(nc(OCCO)nc4c2F)N([C@H](C)c2cccnc2N)CCO3)c1C(F)(F)F` (atropisomer, axis not shown) [Example 156, 2-(((R)-9-(6-amino-4-methyl-3-(trifluoromethyl)pyridin-2-yl)-4-((R)-1-(2-aminopyridin-3-yl)ethyl)-8-chloro-10-fluoro-5,6-dihydro-4H-[1,4]oxazepino[5,6,7-de]quinazolin-2-yl)oxy)ethan-1-ol], the IC50 is 0.19 nM against KRas(G12V), 0.65 nM at KRas, 310 nM in the assay with SW480 cells and 16000 nM with PC-9 cells.

Turning to `Cc1cc(N)nc(-c2c(Cl)c3c4c(nc(OC[C@H]5CC[C@@H]6COCCN65)nc4c2F)N([C@H](C)c2cccnc2N)CCO3)c1C(F)(F)F` (atropisomer, axis not shown; (aR)) [Example 87b, 6-((R)-4-((R)-1-(2-aminopyridin-3-yl)ethyl)-8-chloro-10-fluoro-2-(((6R,8aR)-hexahydro-1H-pyrrolo[2,1-c][1,4]oxazin-6-yl)methoxy)-5,6-dihydro-4H-[1,4]oxazepino[5,6,7-de]quinazolin-9-yl)-4-methyl-5-(trifluoromethyl)pyridin-2-amine], the IC50 against KRas(G12V) is 0.089 nM; at KRas it was 0.18 nM; in the assay on SW480 cells, 28 nM; in the assay with PC-9 cells, 3100 nM.

In the case of `Cc1cc(N)nc(-c2c(Cl)c3c4c(nc(OC[C@H]5CC[C@@H]6COC(F)(F)CN56)nc4c2F)N([C@H](C)c2cccnc2N)CCO3)c1C(F)(F)F` (atropisomer, axis not shown; (aR)) [Example 91b, 6-((R)-4-((R)-1-(2-aminopyridin-3-yl)ethyl)-8-chloro-2-(((6R,8aR)-3,3-difluorohexahydro-1H-pyrrolo[2,1-c][1,4]oxazin-6-yl)methoxy)-10-fluoro-5,6-dihydro-4H-[1,4]oxazepino[5,6,7-de]quinazolin-9-yl)-4-methyl-5-(trifluoromethyl)pyridin-2-amine], the IC50 turned out to be 0.81 nM on KRas(G12V), 2.2 nM against KRas, 140 nM in the assay with SW480 cells and 6400 nM with PC-9 cells.

As for `Cc1cc(N)nc(-c2c(Cl)c3c4c(nc(OC[C@H]5CC[C@@H]6COCCN65)nc4c2F)N([C@H](C)c2cncnc2N)CCO3)c1C(F)(F)F` (atropisomer, axis not shown; (aR)) [Example 102b, 5-((R)-1-((R)-9-(6-amino-4-methyl-3-(trifluoromethyl)pyridin-2-yl)-8-chloro-10-fluoro-2-(((6R,8aR)-hexahydro-1H-pyrrolo[2,1-c][1,4]oxazin-6-yl)methoxy)-5,6-dihydro-4H-[1,4]oxazepino[5,6,7-de]quinazolin-4-yl)ethyl)pyrimidin-4-amine], the IC50 on KRas(G12V) stood at 0.17 nM; on KRas, 0.49 nM; with SW480 cells it was 100 nM; in the assay with PC-9 cells, 8700 nM.

Consider `Cc1cc(N)nc(-c2c(Cl)c3c4c(nc(OC[C@H]5CC[C@@H]6COCCCN65)nc4c2F)N([C@H](C)c2cccnc2N)CCO3)c1C(F)(F)F` (atropisomer, axis not shown; (aR)) [Example 120b, 6-((R)-4-((R)-1-(2-aminopyridin-3-yl)ethyl)-8-chloro-10-fluoro-2-(((7R,9aR)-hexahydro-1H,3H-pyrrolo[2,1-c][1,4]oxazepin-7-yl)methoxy)-5,6-dihydro-4H-[1,4]oxazepino[5,6,7-de]quinazolin-9-yl)-4-methyl-5-(trifluoromethyl)pyridin-2-amine], for which the IC50 against KRas(G12V) was found to be 0.08 nM; at KRas, 0.2 nM; in the assay with SW480 cells, 20 nM; with PC-9 cells, 3000 nM.

Take `Cc1cc(N)nc(-c2c(Cl)c3c4c(nc(OC[C@@]56CCCN5C[C@H](F)C6)nc4c2F)N([C@H](C)c2cncc(N)c2)CCO3)c1C(F)(F)F` (atropisomer, axis not shown; (aS)) [Example 45, (R)-6-(4-((S)-1-(5-aminopyridin-3-yl)ethyl)-8-chloro-10-fluoro-2-(((2R,7aS)-2-fluorotetrahydro-1H-pyrrolizin-7a(5H)-yl)methoxy)-5,6-dihydro-4H-[1,4]oxazepino[5,6,7-de]quinazolin-9-yl)-4-methyl-5-(trifluoromethyl)pyridin-2-amine]: the IC50 at KRas(G12V) came to 0.23 nM; against KRas, 0.27 nM; in the assay with SW480 cells, 50 nM; in the assay with PC-9 cells, 6000 nM.
